The supplement of paper PMC10290057
Counter-ions that a name gives are not always drawn.

Columns and labels:
HCT116 [1] = assay: AC50 cell viability (CellTiter-Glo); higher = less potent; conditions: 48 h
HCT116 [2] = assay: efficacy (fitted maximal change in viability relative to DMSO control); higher = less cytotoxic (negative = loss of viability); conditions: 48 h
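Wherever AC50 cell viability (CellTiter-Glo) is given: HCT116 colorectal carcinoma cells screened at five concentrations per compound, luminescent viability scaled between DMSO wells and empty wells on each plate, curves fitted per compound.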
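Wherever efficacy (fitted maximal change in viability relative to DMSO control) is given: Luminescence-based viability readout, five doses per compound, normalized against on-plate DMSO and empty-well controls, followed by dose-response curve fitting for every drug.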

Row | SMILES | AC50 cell viability (HCT116 [1]) | efficacy (HCT116 [2])
1 | CC(C)CC(=O)Nc1n[nH]c2c1CN(C(=O)C1CCN(C)CC1)C2(C)C | 0.186 µM | -68.7%
2 | CC(C)Oc1ccc(C(=O)N[C@H](CNC(=O)CN(C)C)Cc2ccc(-c3cn4cccc([C@H](C)O)c4n3)cc2)cc1Cl | 4.17 µM | -127%
3 | Cc1ccc(NC(=O)c2ccc(CN3CCNCC3)cc2)cc1Nc1nccc(-c2cccnc2)n1 | 18.6 µM | -93.9%
4 | CC1=C2N=C([NH]C2=CC(=C1)N3CCOCC3)\C4=C(NC[C@@H](O)C5=CC=CC(=C5)Cl)\C=C/NC4=O | 6.61 µM | -93.9%
5 | Cc1c(NC(=O)OCC2COCCN2)cn2ncnc(Nc3ccc4c(cnn4Cc4cccc(F)c4)c3)c12 (stereo not drawn) | 26.3 µM | -91.3%
6 | CCc1ccc2nc(Nc3cc(Cc4ccccc4)nc(N[C@H]4CC[C@H](O)CC4)n3)sc2c1 | 18.6 µM | -65.1%
7 | CCCC(CCC)C(=O)NC/1=N/C(=O)N(/C=C1)[C@@H]2O[C@H](CO)[C@@H](O)C2(F)F | 2.63 µM | -48.1%
8 | CCN(CC)CCCCNc1nc2cc(Cl)c(Cl)cc2nc1-c1ccc(-c2cccs2)s1 | 23.5 µM | -97.7%
9 | CCN(CC)CCCCNc1ncc2c(n1)N(C)C(=O)N(c1c(Cl)c(OC)cc(OC)c1Cl)C2 | 11.8 µM | -80.5%
10 | CCNC(=O)C[C@H]1/N=C(/C2=CC=C(Cl)C=C2)C3=CC(=CC=C3[N]4C(=NN=C14)C)OC | 14.8 µM | -37.7%
11 | CCOC1=CC(=CC=C1C/2=N/[C@@](C)(C3=CC=C(Cl)C=C3)[C@](C)(N2C(=O)N4CCN(CC4)CC(=O)N5CCOCC5)C6=CC=C(Cl)C=C6)C(C)(C)C | 9.17 µM | -114%
12 | CN(C)c1ccc(-c2nc3c(N4CCN(CC(=O)Nc5nccs5)CC4)c(Cl)cnc3[nH]2)cc1 | 0.723 µM | -34.1%
13 | CN1CCN(CC1)C2=CC=C(NC3=NC=C4\C=C(\C#N)C(=O)N(C5CCCC5)C4=N3)C=C2 | 1.32 µM | -77.1%
14 | Cc1cc(Nc2cc(N3CCN(C)CC3)nc(/C=C/c3ccccc3)n2)n[nH]1 | 5.9 µM | -99.9%
15 | CNC(=O)c1c(F)cccc1Nc1nc(Nc2cc3c(cc2OC)CCN3C(=O)CN(C)C)nc2[nH]ccc12 | 5.25 µM | -131%
16 | CNC(=O)C1=CC=C(C)C(=C1)N2C(=C/C(=C(/Br)C2=O)OCC3=C(F)C=C(F)C=C3)\C | 16.6 µM | -41.4%
17 | CNC(=O)Nc1ccc(-c2nc(N3CC4CCC(C3)O4)c3cnn(C4CCC5(CC4)OCCO5)c3n2)cc1 | 1.18 µM | -96.3%
18 | CNCc1ccc(C)c(NC(=O)c2ccc(Nc3nc(-c4ccccc4)c4ccccc4n3)cc2)c1 | 18.6 µM | -94.8%
19 | CNCCn1c(=O)c2cc(OC)c(OC)cc2c2cnc3cc4c(cc3c21)OCO4 | 0.0303 µM | -80.9%
20 | COc1cc2ncnc(-n3nc(-c4ccccn4)nc3N)c2cc1OC | 4.68 µM | -47.9%
21 | COc1cc(Oc2ccnc3cc(OC)c(OC)cc23)ccc1NC(=O)NC(C)c1nccs1 (stereo not drawn) | 20.9 µM | -63.5%
22 | COc1cc2ncnc(Oc3cccc(NC(=O)Nc4cc(C(C)(C)C(F)(F)F)on4)c3)c2cc1OC | 3.72 µM | -66.5%
23 | COc1ccc(-c2cc(C(O)C3CCCCN3)c3ccccc3n2)cc1 (stereo not drawn) | 4.68 µM | -90.9%

Row | SMILES | AC50 cell viability (HCT116 [1]) | efficacy (HCT116 [2])
24 | C[C@@H](Oc1cc(-n2cnc3ccc(CN4CCN(C)CC4)cc32)sc1C(N)=O)c1ccccc1C(F)(F)F | 0.0468 µM | -57.6%
25 | Cc1cc(OCCCc2c3n(c4c(-c5c(C)nn(C)c5C)c(Cl)ccc24)[C@H](C)CN(c2cn(C)c4ccc(C(=O)O)cc24)C3=O)cc(C)c1Cl | 16.6 µM | -93.6%
26 | C[C@H](NC(=O)c1sccc1OCc1ccc(Cl)cc1)c1ccccc1 | 16.6 µM | -50.9%
27 | Cc1ccc(-c2ccc3ncc4c(c3n2)n(C2CCN(C(=O)[C@H](C)O)CC2)c(=O)n4C)cn1 | 0.166 µM | -86.9%
28 | Cn1ncc(Cl)c1-c1cc(C(=O)NC(CN)Cc2ccc(F)c(F)c2)oc1Cl (stereo not drawn) | 13.2 µM | -117%
29 | C[S+]([O-])c1ccc(-c2nc(-c3ccc(F)cc3)c(-c3ccncc3)[nH]2)cc1 (stereo not drawn) | 18.6 µM | -83.2%
30 | O=C(/C=C/c1ccc(Cl)cc1)N1CCC2(CC1)CN(Cc1ccc(Cl)c(Cl)c1)C(=O)O2 | 23.5 µM | -85.1%
31 | ClC1=C[NH]N=C1C\2NC(=N\C3=C2C(=O)CCC3)/NC4=NC5=CC=CC=C5O4 (stereo not drawn) | 18.6 µM | -63.3%
32 | O=C(Nc1ccccc1Br)N[C@@H]1CCN(c2ccc(C(F)(F)F)cn2)C1 | 16.6 µM | -39.8%
33 | O=C(NOCC1CC1)c1ccc(F)c(F)c1Nc1ccc(I)cc1Cl | 4.68 µM | -126%
34 | N#Cc1ccc(-c2c(-c3nnc[nH]3)sc(N3CCOCC3)c2C#N)c(F)c1 | 1.86 µM | -83.5%
35 | N#Cc1cccc(-c2c[nH]c3ncnc(N4CCOCC4)c23)c1 | 16.6 µM | -40.9%
36 | NC1(Cc2ccc(Cl)cc2)CCN(c2ncnc3[nH]ccc23)CC1 | 13.2 µM | -95.2%
37 | NC1=C(Cl)C(=CC=N1)OC2=C(F)C=C(NC(=O)\C3=C\N\C=C(C3=O)\C4=CC=C(F)C=C4)C=C2 | 16.6 µM | -78.4%
38 | Nc1ccc(C(=O)Nc2cccc(-c3nc(N4CCOCC4)c4oc5ncccc5c4n3)c2)cn1 | 5.9 µM | -88.1%
39 | Nc1nc(Nc2ccc([S+](N)(=O)[O-])cc2)nn1C(=O)c1c(F)cccc1F | 1.66 µM | -65.7%
40 | Nc1n[nH]c2nnc(-c3c(-c4ccccc4)nn4ccccc34)cc12 | 18.6 µM | -41.3%
41 | O=C(C1CC1)N1CC[C@@H](Cn2c(-c3ccc(-c4ccc5occc5c4)cc3)nc3cnccc32)C1 | 23.5 µM | -66.1%
42 | O=C(NCCCNc1nc(Nc2cccc(CN3CCOCC3)c2)ncc1C1CC1)C1CCC1 | 16.6 µM | -96.5%
43 | O=C(NOCC(O)CO)c1ccc(F)c(F)c1Nc1ccc(I)cc1F (stereo not drawn) | 0.166 µM | -68.6%
44 | OCCn1cc(-c2ccc3c(c2)CC/C3=N\O)c(-c2ccncc2)n1 | 4.68 µM | -55.7%
45 | N#Cc1ccc2c(c1)CN([S+](=O)([O-])c1cccs1)[C@H](Cc1ccccc1)CN2Cc1cnc[nH]1 | 0.417 µM | -73.3%
46 | Cc1ccc(C(=O)Nc2ccc(CN3CCN(C)CC3)c(C(F)(F)F)c2)cc1C#Cc1cnc2cccnn12 [Ponatinib] | 1.48 µM | –

Row | SMILES | AC50 cell viability (HCT116 [1]) | efficacy (HCT116 [2])
47 | COc1ccc(CCN(C)CCCC(C#N)(c2ccc(OC)c(OC)c2)C(C)C)cc1OC (stereo not drawn) [Verapamil] | 18.6 µM | –
48 | Nc1ncnc2c1ncn2[C@@H]1O[C@H](CO)[C@@H](O)[C@@H]1O [Vidarabine] | – | -11.4%
49 | C[S+](=O)([O-])c1ccc(C(=O)Nc2ccc(Cl)c(-c3ccccn3)c2)c(Cl)c1 [Vismodegib] | – | -23.8%
50 | CCOC(=O)N[C@@H]1CC[C@@H]2[C@@H](C1)C[C@H]1C(=O)O[C@H](C)[C@H]1[C@H]2/C=C/c1ccc(-c2cccc(F)c2)cn1 [Vorapaxar] | – | -40.6%
51 | C[C@@H](c1ncncc1F)[C@](O)(Cn1cncn1)c1ccc(F)cc1F [Voriconazole] | – | -12.1%
52 | O=C(CCCCCCC(=O)Nc1ccccc1)NO [Vorinostat (SAHA)] | – | -81%
53 | CN[C@@H]1CN(C[C@H]1OC)C2=NC3=C(C=C2)C(=O)C(=C\N3C4=NC=CS4)/C(O)=O [Vosaroxin] | – | -17.8%
54 | Cc1c(F)ccc(C(=O)Nc2cc([N+](=O)[O-])ccc2N2CCN(C)CC2)c1Cl [WDR5-C47] | – | -7.44%
55 | COc1cc2ncnc(Nc3cc(Br)c(O)c(Br)c3)c2cc1OC [WHI-P97] | – | -37.8%
56 | C[C@H](NC(=O)/C(C#N)=C/c1cccc(Br)n1)c1ccccc1 [WP-1066] | – | -83.5%
57 | Cc1cc(-c2ccc(CC(=O)Nc3ccc(-c4cccnc4)cc3)cc2)ccn1 [Wnt-C59] | – | -33.8%
58 | O=C(Nc1ccc(-c2ccnc(Nc3ccc(N4CCOCC4)cc3)n2)cc1)C1CCCN1 (stereo not drawn) [XL-019] | – | -19.1%
59 | Cc1ccc([S+](=O)([O-])Nc2nc3ccccc3nc2Nc2ccc3nsnc3c2)cc1 [XL-147] | – | -12%
60 | CC1=CC(=CC(=C1C\C2=N\CCN2)C)C(C)(C)C [Xylometazoline hydrochloride] | – | -32.9%
61 | N#Cc1ccc(N(Cc2ccc(Br)cc2)n2cnnc2)cc1 [YM-511] | – | -14.3%
62 | COC(=O)[C@@H]1[C@H]2C[C@H]3c4[nH]c5ccccc5c4CCN3C[C@@H]2CC[C@@H]1O [Yohimbine] | – | -8.81%
63 | CC(C(=O)O)c1ccc2c(c1)CC(=O)c1ccccc1S2 (stereo not drawn) [Zaltoprofen] | – | 8.02%
64 | OC[C@H]1O[C@H]([C@H](O)[C@@H]1O)N2/C=C\C=N/C2=O [Zebularine] | – | -11.7%
65 | CC(c1cc2ccccc2s1)N(O)C(N)=O (stereo not drawn) [Zileuton] | – | -26.8%
66 | CC1=C(/C=C/C(C)=C/C=C/C(C)=C/C=C/C=C(C)/C=C/C=C(C)/C=C/C2=C(C)CCCC2(C)C)C(C)(C)CCC1 [beta-Carotene] | – | -21.3%
67 | CCCCn1c(=O)n(Cc2ccccc2F)c(=O)c2nc(Cc3ccc(NC(C)=O)cc3)[nH]c21 [cPEPCK Inhibitor] | – | -8.36%
68 | CC/1=C2/N(C(=O)C(=C1)/NC3=CC(=NC=N3)N)C4(CCCCC4)NC2=O [eFT508] | – | -7.54%
